Measurements: patent publication US7326540B2, “Methods for identifying compounds that modulate stabilization of secretase-associated proteins” (priority 2003, dated 2008)
Where a SMILES comes first, the peptide text is derived from it. The star is where a group is joined. Cbz = O=C(OCc1ccccc1)*; CH2F = FC*

Assays:
Assay type in all cases: cell-based, Chinese Hamster
[1] = test system: Aβ production in CHO cells overexpressing APP751 and PS1 WT; test: Secreted Aβ ELISA in CHO cells overexpressing APP751 and PS1 during induced apoptosis
Experimental: We examined Aβ generation induced by apoptosis in CHO cell lines. We used CHO cell lines stably overexpressing both APP751 and PS1 WT. For the induction of apoptosis, we used 1 μM staurosporine (STS) in serum free media. Secreted Aβ was measured in the conditioned media of cells treated with STS for 6 hrs using a sensitive ELISA assay [courtesy of Dr. Dennis Selkoe; M. S. Wolfe et al., Nature 398, 513-7 (1999)].
Treatment with either STS for 6 hrs or etoposide for 12 hrs induced from 10 to 20% of cell death assayed by MTT assay, which is a colorimetric short-term suspension culture assay in which the yellow tetrazolium salt (MTT) is reduced in metabolically active cells to form insoluble purple formazan crystals, which are solubilized by the addition of a detergent.
Chinese Hamster Ovary (CHO) cells expressing APP751 and BACE (CAB), CHO cells expressing full-length APP and wild-type PS1 (CHO-APP751/PS1) or expressing C99 and wild-type PS1 (CHO-CC99/PS1), H4 human neuroglioma cells expressing APP751 (H4-APP751), mouse embryonic fibroblast (MEF), embryonic stem (ES) cells, and human epithelial A431 cells were grown as described previously (Marambaud, P. et al., Embo J 21, 1948-56 (2002); Cai, H. et al., Nat Neurosci 4, 233-4 (2001); Sato, N. et al., Nat Cell Biol 2, 863-70 (2000); Puglielli, L., Ellis, B. C., Saunders, A. J. & Kovacs, D. M., J Biol Chem 278, 19777-83 (2003); Wolfe, M. S. et al., Nature 398, 513-7 (1999)). For the induction of apoptosis, we used staurosporine or etoposide (Calbiochem (EMD Biosciences, San Diego, Calif.)). For Aβ measurements, cells were seeded at the density of 0.5×10^6 cells per well in 6 well plates. After 48 hours, cells were treated with either STS (1 μM) for 6 hours. […] For time-course experiments, cells were seeded at the density of 2×10^6 cells per 100 mm dish and treated with STS (1 μM) or etoposide (100 μg/mL). At different time points (0, 3, 6, 9, 12 and 24 hours), the cells were scraped, centrifuged and then lysed in buffer containing 1% NP40. Western blot analysis was performed as previously described (Tesco, G., Koh, Y. H. & Tanzi, R. E., J Biol Chem 278, 46074-80 (2003)). Densitometry analysis was performed on a Macintosh computer using the public domain NIH Image program (developed at the U.S. National Institutes of Health and available on the Internet at http://rsb.info.nih.gov/nih-image/).
Secreted Aβ1-total was measured in the conditioned media of untreated cells or of cells treated with STS or STS plus zVAD using a sensitive ELISA (Wolfe, M. S. et al., Nature 398, 513-7 (1999). At least three different experiments were carried out and each experiment was performed at least in triplicate.

BACE [2] = test: BACE protein levels by Western blot in CHO cells overexpressing APP751 and PS1WT
Source text: We examined whether the apoptosis-mediated increase in Aβ generation was associated with changes in the levels and activities of BACE and β-secretase. […] In addition, upregulation of BACE occured also in H4 human neuroglioma (FIG. 3B) and in BACE+/+ mouse fibroblasts (FIG. 3C). BACE−/− mouse fibroblasts were used to show the specificity of the antibody used to detect BACE (FIG. 3C).
Chinese Hamster Ovary (CHO) cells expressing APP751 and BACE (CAB), CHO cells expressing full-length APP and wild-type PS1 (CHO-APP751/PS1) or expressing C99 and wild-type PS1 (CHO-CC99/PS1), H4 human neuroglioma cells expressing APP751 (H4-APP751), mouse embryonic fibroblast (MEF), embryonic stem (ES) cells, and human epithelial A431 cells were grown as described previously (Marambaud, P. et al., Embo J 21, 1948-56 (2002); Cai, H. et al., Nat Neurosci 4, 233-4 (2001); Sato, N. et al., Nat Cell Biol 2, 863-70 (2000); Puglielli, L., Ellis, B. C., Saunders, A. J. & Kovacs, D. M., J Biol Chem 278, 19777-83 (2003); Wolfe, M. S. et al., Nature 398, 513-7 (1999)). For the induction of apoptosis, we used staurosporine or etoposide (Calbiochem (EMD Biosciences, San Diego, Calif.)). For Aβ measurements, cells were seeded at the density of 0.5×10^6 cells per well in 6 well plates. After 48 hours, cells were treated with either STS (1 μM) for 6 hours. […]

BACE [3] = test: BACE protein levels by Western blot and densitometry in CAB cells
Experimental: Chinese Hamster Ovary (CHO) cells expressing APP751 and BACE (CAB), CHO cells expressing full-length APP and wild-type PS1 (CHO-APP751/PS1) or expressing C99 and wild-type PS1 (CHO-CC99/PS1), H4 human neuroglioma cells expressing APP751 (H4-APP751), mouse embryonic fibroblast (MEF), embryonic stem (ES) cells, and human epithelial A431 cells were grown as described previously (Marambaud, P. et al., Embo J 21, 1948-56 (2002); Cai, H. et al., Nat Neurosci 4, 233-4 (2001); Sato, N. et al., Nat Cell Biol 2, 863-70 (2000); Puglielli, L., Ellis, B. C., Saunders, A. J. & Kovacs, D. M., J Biol Chem 278, 19777-83 (2003); Wolfe, M. S. et al., Nature 398, 513-7 (1999)). For the induction of apoptosis, we used staurosporine or etoposide (Calbiochem (EMD Biosciences, San Diego, Calif.)). For Aβ measurements, cells were seeded at the density of 0.5×10^6 cells per well in 6 well plates. After 48 hours, cells were treated with either STS (1 μM) for 6 hours. In order to inhibit caspase activation a sister plate of cells was pre-treated with zVAD ([…], Enzyme Systems Products) for 1 hour before STS treatment. For time-course experiments, cells were seeded at the density of 2×10^6 cells per 100 mm dish and treated with STS (1 μM) or etoposide (100 μg/mL). At different time points (0, 3, 6, 9, 12 and 24 hours), the cells were scraped, centrifuged and then lysed in buffer containing 1% NP40. Western blot analysis was performed as previously described (Tesco, G., Koh, Y. H. & Tanzi, R. E., J Biol Chem 278, 46074-80 (2003)). Densitometry analysis was performed on a Macintosh computer using the public domain NIH Image program (developed at the U.S. National Institutes of Health and available on the Internet at http://rsb.info.nih.gov/nih-image/).
It has been previously shown that overexpression of BACE enhances β-secretase cleavage of APP leading to the accumulation of intracellular C99 (Vassar, R. et al., Science 286, 735-41 (1999)). We first asked whether apoptosis/caspase activation leads to accumulation of C99 owing to increased β-secretase activity.

[4] = test system: CHO cells overexpressing APP751 and PS1 WT; test: Induction of apoptosis (caspase 3 activation, TUNEL); conditions: STS 1 μM, after 6 hrs
[5] = etoposide 100 μg/mL + 200 μM zVAD, 12 hrs, compared to etoposide treated cells
[6] = zVAD 200 μM pretreated 1 hr before STS, compared to STS-treated cells, p<0.05
[7] = 1 μM STS in serum free media, 6 hrs, p<0.05 t-test

Compound | Secreted Aβ42 [1, 5] | Secreted Aβtotal [1, 5] | Secreted Aβ1-42 [1, 6] | Secreted Aβtotal [1, 6] | BACE upregulation during STS-induced apoptosis (BACE [2]; zVAD 100 μM, all cell types (CHO, H4 human neuroglioma, BACE+/+ mouse fibroblasts)) | BACE accumulation during STS-induced apoptosis (BACE [3]; zVAD, both CAB and H4-APP751 cells) | Apoptosis (caspase 3 activated, TUNEL positive) [4] | Secreted Aβ1-42 [1, 7] | Secreted Aβtotal [1, 7] | Aβ1-total increase ([1]; STS-treated CHO-APP751/PS1 cells, 6 hours) | BACE protein levels (BACE [2]; after 24 hrs of STS treatment) | BACE protein levels increase (BACE [3]; after 6 hours or 24 hours of STS treatment, CAB cells)
COC(=O)C[C@H](NC(=O)[C@H](C)NC(=O)[C@@H](NC(=O)OCc1ccccc1)C(C)C)C(=O)CF [zVAD] (Cbz-Val-Ala-Asp(OMe)-CH2F) | significantly attenuate | significantly attenuate | significantly reduced | significantly reduced | prevented BACE upregulation | prevented BACE accumulation |  |  |  |  |  | 
CN[C@@H]1C[C@H]2O[C@@](C)([C@@H]1OC)n1c3ccccc3c3c4c(c5c6ccccc6n2c5c31)C(=O)NC4 [STS, staurosporine] |  |  |  |  |  |  | induced apoptosis | significantly increased | significantly increased | ~2.5 fold | significant increase | ~4 fold
